Test results published in patent publication US20250340529A1, “Heterocyclic Compounds as Immunomodulators of PD-L1 Interactions” (Ascletis BioScience Co., Ltd, priority 2021, published 2025).

What was measured:
PD-L1/CHO-K1 cells = PD-L1/CHO-K1 cells (Homo sapiens (Human), UniProt Q9NZQ7); assay: PD-L1 internalization (FACS, PD-L1/CHO-K1 cells); type: cell-based; conditions: % activation of PD-L1 internalization = 1 − PD-L1 signal; 17 hours incubation
Description: Day 1. Seeding cells: Digest the PD-L1/CHO-K1 cells by trypsin in the flask, then counting the cell number and diluted to 1×10^5 cells/ml. Seeding cells to 6 well plate (Corning, #3516), 2 mL/well. The plates were incubated at 37° C., […] incubator for 24 hours.
Day 2. Preparing compounds and treated cells: Dilute GLC01-258 from 15 mM to 0.5 mM by using DMSO, and 15 mM compound were serial diluted from 15 mM˜15 nM by DMSO, Then 500 times dilute the compounds by using assay buffer. Prepare 0.2% DMSO in assay buffer used for Vehicle control and low control. Take out the plates, aspirated the medium and thrown away. Adding 2 mL of the diluted compounds, vehicle control and low control to corresponding wells. Then incubated the plates for 17 hours at 37° C., 5% CO2 incubator.
Day 3. Preparing samples for FACS: After 17 hours incubation, discarded medium and washed by the PBS. Cells in each well were Digested by trypsin. Centrifuge and discard the supernatant, then wash the cells by DPBS (Ca^2+, Mg^2+ free) for twice. 10 fold dilute the antibody (PE-conjugated mouse anti-human CD274) by DPBS, then adding the staining solution to compounds treated samples and vehicle control sample. The low control only add DPBS without antibody. Incubate the plates at room temperature for 20 minutes and protect from light. After 20 minutes, wash the samples by DPBS for twice. Then centrifuge and discard the supernatant. Resuspend cells by 300 uL DPBS and transfer the samples to 5 mL Polystryrene Round-Bottom Tube (Falcon, #352054), then tested by BD FACSCanto. […].
Set the PD-L1 signal of vehicle control as 100%, PD-L1 signal of Low control as 0%. Then calculate the compound treated samples' PD-L1 signal
0% PD-L1 signal: Low control which stained without anti-CD274
100% PD-L1 Signal: vehicle control which stained with anti-CD274
The % activation of PD-L1 Internalization=1−PD-L1 signal of compound.

PD-1/PD-L1 = PD-1/PD-L1 (Homo sapiens (Human), UniProt Q9NZQ7); assay: PD-1/PD-L1 Homogeneous Time-Resolved Fluorescence (HTRF) binding assay; conditions: 3 nM PD1, 10 nM PD-L1, 25° C., PBS pH 7.4
Description: PD-1/PD-L1 Homogeneous Time-Resolved Fluorescence (HTRF) Binding Assay
The assays were conducted in a standard black 384-well polystyrene plate with a final volume of 20 μL. Inhibitors were first serially diluted in DMSO and then added to the plate wells before the addition of other reaction components. The final concentration of DMSO in the assay was 1%. The assays were carried out at 25° C. in the PBS buffer (pH 7.4) with 0.05% Tween-20 and 0.1% BSA. Recombinant human PD-L1 protein (19-238) with a Histag at the C-terminus was purchased from AcroBiosystems (PD1-H5229). Recombinant human PD-1 protein (25-167) with Fe tag at the C-terminus was also purchased from AcroBiosystems (PD1-H5257). PD-L1 and PD-1 proteins were diluted in the assay buffer and 10 μL was added to the plate well. Plates were centrifuged and proteins were preincubated with inhibitors for 40 minutes. The incubation was followed by the addition of 10 μL of HTRF detection buffer supplemented with Europium cryptate-labeled anti-human IgG (PerkinElmer-AD0212) specific for Fe and anti-His antibody conjugated to SureLight®-Allophycocyanin (APC, PerkinElmer-AD0059H). After centrifugation, the plate was incubated at 25° C. for 60 min. before reading on a PHERAstar FS plate reader (665 nm/620 nm ratio). Final concentrations in the assay were—3 nM PD1, 10 nM PD-L1, 1 nM europium anti-human IgG and 20 nM anti-His-Allophycocyanin. IC50 determination was performed by fitting the curve of percent control activity versus the log of the inhibitor concentration.

PD-L1/CHO-K1 cells, sequence (Q9NZQ7 19-290): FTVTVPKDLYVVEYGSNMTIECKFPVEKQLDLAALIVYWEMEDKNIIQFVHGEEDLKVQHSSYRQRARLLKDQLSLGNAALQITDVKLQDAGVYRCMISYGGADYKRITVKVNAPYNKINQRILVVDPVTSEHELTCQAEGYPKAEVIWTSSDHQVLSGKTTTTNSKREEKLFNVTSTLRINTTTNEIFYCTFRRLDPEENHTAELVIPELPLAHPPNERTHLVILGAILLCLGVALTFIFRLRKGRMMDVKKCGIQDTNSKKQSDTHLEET
PD-1/PD-L1, sequence (Q9NZQ7 19-238): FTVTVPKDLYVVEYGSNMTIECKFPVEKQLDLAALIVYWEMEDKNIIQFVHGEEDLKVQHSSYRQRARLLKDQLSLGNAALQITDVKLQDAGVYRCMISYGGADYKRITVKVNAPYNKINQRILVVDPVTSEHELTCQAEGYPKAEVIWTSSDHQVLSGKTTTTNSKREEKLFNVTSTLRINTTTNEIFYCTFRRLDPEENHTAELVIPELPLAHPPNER

Structure (SMILES) | Internalization (PD-L1/CHO-K1 cells) | IC50 (PD-1/PD-L1)
O=C1CC(CN2C(=O)COc3cc(-c4cccc(-c5cccc(-c6ccc7c(c6)OCC(=O)N7CC6CNC(=O)C6)c5Cl)c4Cl)ccc32)CN1 (stereo not drawn) [Compound 373] | 3.20% | 3.79 nM
O=C1COc2cc(-c3cccc(-c4cccc(-c5ccc6c(c5)OCC(=O)N6C[C@@H]5CCNC5)c4Cl)c3Cl)ccc2N1C[C@@H]1CCNC1 [Compound 503] | 3.50% | 4.19 nM
CC(CO)(NCCN1C(=O)COc2cc(-c3cccc(-c4cccc(-c5ccc6c(c5)OCC(=O)N6CCNC(C)(CO)C(=O)O)c4Cl)c3Cl)ccc21)C(=O)O (stereo not drawn) [Compound 475] | 31.50% | 3.23 nM
O=C(O)[C@H](CO)NCCN1C(=O)COc2cc(-c3cccc(-c4cccc(-c5cc(F)c6c(c5)OCC(=O)N6CCN[C@@H](CO)C(=O)O)c4Cl)c3Cl)cc(F)c21 [Compound 561] | 5.30% | 8.95 nM
O=C1CC[C@@H](CN2C(=O)COc3c2ccc(-c2cccc(-c4cccc(-c5ccc6c(c5F)OCC(=O)N6C[C@@H]5CCC(=O)N5)c4Cl)c2Cl)c3F)N1 [Compound 395] | 2.50% | 6.26 nM
O=C1COc2cc(-c3cccc(-c4cccc(-c5ccc6c(c5)OCC(=O)N6CCN[C@@H](CO)C(=O)O)c4Cl)c3Cl)ccc2N1 [Compound 542] | 3.30% | 5.24 nM
O=C(O)[C@@H](CCO)NCCN1C(=O)COc2cc(-c3cccc(-c4cccc(-c5ccc6c(c5)OCC(=O)N6CCN[C@H](CCO)C(=O)O)c4Cl)c3Cl)ccc21 [Compound 552] | 4.90% | 7.25 nM
O=C1CC[C@@H](CN2C(=O)COc3cc(-c4cccc(-c5cccc(-c6cc7c(cc6F)N(C[C@@H]6CCC(=O)N6)C(=O)CO7)c5Cl)c4Cl)c(F)cc32)N1 [Compound 388] | 6.10% | 1.1 nM
O=C1COc2cc(-c3cccc(-c4cccc(-c5ccc6c(c5)OCC(=O)N6C[C@H]5NC6CCC5C6)c4Cl)c3Cl)ccc2N1C[C@H]1NC2CCC1C2 [Compound 539] | 11.60% | 7.73 nM
O=C1COc2cc(-c3cccc(-c4cccc(-c5ccc6c(c5)OCC(=O)N6CCNCCO)c4Cl)c3Cl)ccc2N1CCNCCO [Compound 445] | 20.50% | 5.01 nM
NCCN1C(=O)COc2cc(-c3cccc(-c4cccc(-c5ccc6c(c5)OCC(=O)N6CCN)c4Cl)c3Cl)ccc21 [Compound 538] | 3.60% | 8.18 nM
O=C(O)[C@H](CO)NCCN1C(=O)COc2cc(-c3cccc(-c4cccc(-c5ccc6c(c5)OCC(=O)N6CCN[C@@H](CO)C(=O)O)c4F)c3F)ccc21 [Compound 613, (2S,2'S)-2,2′-((((2,2′-difluoro-[1,1′-biphenyl]-3,3′-diyl)bis(3-oxo-2,3-dihydro-4H-benzo[b][1,4]oxazine-7,4-diyl))bis(ethane-2,1-diyl))bis(azanediyl))bis(3-hydroxypropanoic acid)] | 4.80% | –
CN1CC(=O)N(C[C@@H]2CCC(=O)N2)c2ccc(-c3cccc(-c4cccc(-c5ccc6c(c5)N(C)CC(=O)N6C[C@@H]5CCC(=O)N5)c4Cl)c3Cl)cc21 [Compound 402] | 2.40% | 1.98 nM
O=C(O)CCNCCN1C(=O)COc2cc(-c3cccc(-c4cccc(-c5ccc6c(c5)OCC(=O)N6CCNCCC(=O)O)c4Cl)c3Cl)ccc21 [Compound 468] | 20.90% | 4.9 nM
O=C1COc2cc(-c3cccc(-c4cccc(-c5ccc6c(c5)OCC(=O)N6CCN5CC[C@H](O)C5)c4Cl)c3Cl)ccc2N1CCN1CC[C@H](O)C1 [Compound 476] | 6.10% | 5.22 nM
O=C1COc2cc(-c3cccc(-c4cccc(-c5ccc6c(c5)OCC(=O)N6C[C@@H]5CC(F)(F)CN5)c4Cl)c3Cl)ccc2N1C[C@@H]1CC(F)(F)CN1 [Compound 530] | 1.60% | 76.9 nM

Structure (SMILES) | Internalization (PD-L1/CHO-K1 cells) | IC50 (PD-1/PD-L1)
O=C(O)[C@H](CCO)NCCN1C(=O)COc2cc(-c3cccc(-c4cccc(-c5ccc6c(c5)OCC(=O)N6CCN[C@@H](CCO)C(=O)O)c4Cl)c3Cl)ccc21 [Compound 560] | 3.10% | 7.78 nM
O=C1CC[C@@H](CNCCN2C(=O)COc3cc(-c4cccc(-c5cccc(-c6ccc7c(c6)OCC(=O)N7CCNC[C@@H]6CCC(=O)N6)c5Cl)c4Cl)ccc32)N1 [Compound 449] | 12.20% | 3.89 nM
O=C(O)[C@H](CO)NCCN1C(=O)COc2c1ccc(-c1cccc(-c3cccc(-c4ccc5c(c4F)OCC(=O)N5CCN[C@@H](CO)C(=O)O)c3Cl)c1Cl)c2F [Compound 557] | 20.30% | 5.33 nM
C[C@H](NCCN1C(=O)COc2cc(-c3cccc(-c4cccc(-c5ccc6c(c5)OCC(=O)N6CCN[C@@H](C)C(=O)O)c4Cl)c3Cl)ccc21)C(=O)O [Compound 536] | 7.90% | 4.31 nM
O=C1CC[C@@H](CN2C(=O)COc3cc(-c4cccc(-c5cccc(-c6ccc7c(c6)OCC(=O)N7C[C@@H]6CCC(=O)N6)c5Cl)c4Cl)ccc32)N1 [Compound 338] | 6.80% | 1.46 nM
C[C@@H](O)[C@H](NCCN1C(=O)COc2cc(-c3cccc(-c4cccc(-c5ccc6c(c5)OCC(=O)N6CCN[C@H](C(=O)O)[C@@H](C)O)c4Cl)c3Cl)ccc21)C(=O)O [Compound 545] | 7.80% | 4.81 nM
O=C1CC[C@@H](CN2C(=O)CNc3cc(-c4cccc(-c5cccc(-c6ccc7c(c6)NCC(=O)N7C[C@@H]6CCC(=O)N6)c5Cl)c4Cl)ccc32)N1 [Compound 363] | 5.50% | 2.16 nM
O=C1COc2cc(-c3cccc(-c4cccc(-c5ccc6c(c5)OCC(=O)N6C[C@@H]5CCCCN5)c4Cl)c3Cl)ccc2N1C[C@@H]1CCCCN1 [Compound 558] | – | 10.6 nM
O=C1CC[C@@H](Cn2c(=O)cnc3cc(-c4cccc(-c5cccc(-c6ccc7c(c6)ncc(=O)n7C[C@@H]6CCC(=O)N6)c5Cl)c4Cl)ccc32)N1 [Compound 361] | – | 1.75 nM
O=C1COc2cc(-c3cccc(-c4cccc(-c5ccc6c(c5)OCC(=O)N6C[C@@H]5CCC(=O)N5)c4Cl)c3Cl)ccc2N1 [Compound 429, (S)-7-(2,2′-dichloro-3′-(3-oxo-3,4-dihydro-2H-benzo[b][1,4]oxazin-7-yl)-[1,1′-biphenyl]-3-yl)-4-((5-oxopyrrolidin-2-yl)methyl)-2H-benzo[b][1,4]oxazin-3(4H)-one] | – | 20.8 nM
O=C(O)[C@@H](O)CNCCN1C(=O)COc2cc(-c3cccc(-c4cccc(-c5ccc6c(c5)OCC(=O)N6CCNC[C@H](O)C(=O)O)c4Cl)c3Cl)ccc21 [Compound 553] | 9.40% | –
Cc1c(-c2ccc3c(c2)OCC(=O)N3CCN2C[C@H](O)C[C@H]2C(=O)O)cccc1-c1cccc(-c2ccc3c(c2)OCC(=O)N3CCN2C[C@H](O)C[C@H]2C(=O)O)c1C [Compound 514] | – | 4.46 nM
O=C1CC[C@@H](CN2C(=O)COc3nc(-c4cccc(-c5cccc(-c6ccc7c(n6)OCC(=O)N7C[C@@H]6CCC(=O)N6)c5Cl)c4Cl)ccc32)N1 [Compound 457] | – | 8.78 nM
CN(CCO)CCN1C(=O)COc2cc(-c3cccc(-c4cccc(-c5ccc6c(c5)OCC(=O)N6CCN(C)CCO)c4Cl)c3Cl)ccc21 [Compound 471] | – | 4.7 nM
O=C1CC[C@@H](CN2C(=O)COc3cc(-c4cccc(-c5cccc(-c6cnc7c(c6)OCC(=O)N7C[C@@H]6CCC(=O)N6)c5Cl)c4Cl)cnc32)N1 [Compound 401] | – | 9.78 nM
CC(C)(C)OC[C@H](NCCN1C(=O)COc2cc(-c3cccc(-c4cccc(-c5ccc6c(c5)OCC(=O)N6CCN[C@@H](COC(C)(C)C)C(=O)O)c4Cl)c3Cl)ccc21)C(=O)O [Compound 571] | – | 16 nM
